The results in this text go back to ChEMBL document CHEMBL1201862, “PubChem BioAssay data set” (2004).

Calls of active or inactive are those of the source.

For experiment [1], the target named is Lysosomal acid glucosylceramidase (Homo sapiens, UniProt P04062). Briefly: Dose response cell-based high throughput screening assay to identify enhancers of beta-glucosidase activity. [Related pubchem assays: 784 ]. The class given is functional.
The nature of experiment [2]: HEp-2 cell cytotoxicity, dose response, cytotoxicity control for RSV inhibitor project, HTS (AID 2410). In kind it is functional. The conditions noted are these: human respiratory syncytial virus.
Experiment [3] is described as follows: cells.
Experiment [4] has as its target Peroxisome proliferator-activated receptor gamma/Nuclear receptor coactivator 2 (Homo sapiens, UniProt P37231). In kind it is functional.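 Note: agonist potency for raising coactivator recruitment to the receptor.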
In experiment [5] the target is G-protein coupled receptor 35 (Homo sapiens, UniProt Q9HC97). Kind of experiment: GPR35 antagonists blocking zaprinast-driven arrestin recruitment, primary screen, imaging, U2OS, beta-arrestin-GFP, zaprinast agonist (AID 2058).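 Note: antagonist potency meaning inhibition of agonist-induced arrestin redistribution.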 In kind it is functional. (In general: Activated receptors often draw arrestin, which recruitment assays turn into a signal.)
Experiment [6] deals with Peroxisome proliferator-activated receptor gamma/Nuclear receptor coactivator 1 (Homo sapiens, UniProt P37231). In kind it is functional.
The subject of experiment [7] is Streptococcus sp. 'group A'. Kind of experiment: growth inhibition of control SK(-) GAS strain, dose response, counter-screen for streptokinase expression inhibitor project, luminescence, kanamycin, BacTiterGlo, confirmation (AID 1900). The class given is functional, organism-based. On the technique in general: A counterscreen serves to expose hits that act by an unwanted route or on another target.

Experiment [8] has as its target Peroxisome proliferator-activated receptor gamma/Nuclear receptor coactivator 3 (Homo sapiens, UniProt P37231). The class given is functional.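 Note: agonist potency for raising coactivator recruitment to the receptor.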
The target in experiment [9] is T1, Streptokinase A (Streptococcus pyogenes serotype M1, UniProt P10520).
T1 sequence (P10520 whole entry): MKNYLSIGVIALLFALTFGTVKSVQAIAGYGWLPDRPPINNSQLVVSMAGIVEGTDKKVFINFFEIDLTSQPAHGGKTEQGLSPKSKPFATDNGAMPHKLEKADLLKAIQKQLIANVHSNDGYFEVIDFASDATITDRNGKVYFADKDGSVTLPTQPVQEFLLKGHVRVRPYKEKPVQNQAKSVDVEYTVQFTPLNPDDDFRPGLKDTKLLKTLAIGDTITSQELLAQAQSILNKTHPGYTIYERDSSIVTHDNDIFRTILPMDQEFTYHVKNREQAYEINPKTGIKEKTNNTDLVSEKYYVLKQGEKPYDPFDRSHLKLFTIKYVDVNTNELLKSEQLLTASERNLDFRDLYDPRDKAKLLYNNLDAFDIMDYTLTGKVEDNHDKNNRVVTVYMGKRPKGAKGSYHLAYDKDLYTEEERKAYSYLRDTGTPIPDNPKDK
Kind of experiment: S. pyogenes streptokinase expression inhibitors, potency, dose response, plasminogen activation absorbance, OD405 (AID 1914).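 Note: secreted streptokinase activity via plasminogen activation per viability signal from cell pellet.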 In kind it is functional, Streptococcus pyogenes M1 GAS.

The nature of experiment [10]: inhibitors of intracellular T. cruzi replication, confirmation, NIH3T3 host cells, beta-gal luminescence (AID 2044).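 Note: intracellular parasites grown in NIH/3T3 mouse fibroblasts as host cells; luminescent beta-galactosidase reporter signal from transgenic T. cruzi replicating inside host cells; inhibitors lower the luminescence signal.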 In kind it is functional, cell-based.
A short description of experiment [11]: cytotoxicity toward NIH3T3 fibroblasts, dose response, counter-screen, cell-based, ATP luminescence, mouse fibroblasts (AID 2010).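 Note: cells exposed to compound for about 90 hours before reading.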 In kind it is functional.
Experiment [12] deals with Streptococcus. Kind of experiment: Group A Streptococcus viability loss, dose response, counter-screen for streptokinase expression inhibitor project, luminescence, BacTiterGlo (AID 1915).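 Note: potency for reduction of bacterial viability or growth.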 The class given is functional, organism-based.
The target in experiment [13] is Voltage-dependent T-type calcium channel subunit alpha-1H (Homo sapiens, UniProt O95180). The class given is functional.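 Note: channel activity triggered by adding a high calcium stimulation buffer.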
For experiment [14], the target named is Aspartyl aminopeptidase (Plasmodium falciparum 3D7, UniProt Q8I2J3).
For experiment [15], the target named is Procathepsin L (Homo sapiens, UniProt P07711).
Experiment [16] can be described thus: Luminescence Cell-Based Dose Retest to Confirm Inhibitors of Cancer Stem Cells. [Related pubchem assays (depositor defined):AID2717, AID2721]. As to conditions: Homo sapiens. In kind it is functional.
Experiment [17] addresses Alkaline phosphatase, placental type (Homo sapiens, UniProt P05187). Briefly: PLAP enzyme inhibitors, confirmation, biochemical, luminescence (AID 1512). The class given is functional.
Experiment [18] deals with HEK293. Kind of experiment: Fluorescence-based counterscreen for potentiators or agonists of NPY-Y2: cell-based high-throughput dose response assay to identify inhibitors of cyclic nucleotide gated ion channel (CNGC) activity. In this assay, the parental HEK293 cell line transfected with a cyclic-nucleotide gated ion channel (CNGC)-based cAMP sensor is used to measure inhibition of isoproterenol-induced CNGC activity by test compound. The class given is functional. The conditions noted are these: Homo sapiens.

Experiment [19] concerns the target Neuropeptide Y receptor type 2 (Homo sapiens, UniProt P49146). Kind of experiment: Fluorescence-based cell-based high-throughput dose response assay for agonists of NPY-Y2. [Related pubchem assays: 1703 (Screening assay (CNGC inhibitors).), 1359 (Screening assay (NPY-Y2 potentiators or agonists).), 1304 (Screening assay (NPY-Y1 potentiators or agonists).), 1710 (Screening assay (NPY-Y2 agonists).), 1791 (Summary AID.)]. In kind it is functional.

In experiment [20] the target is Neuropeptide Y receptor type 1 (Homo sapiens, UniProt P25929). Kind of experiment: Fluorescence-based counterscreen for agonists of NPY-Y2: cell-based high-throughput dose response assay for agonists of NPY-Y1. The class given is functional.
In experiment [21] the target is T2, Polyadenylate-binding protein 1 (Homo sapiens, UniProt P11940). Briefly: PABP1 MLLE–PAM2 interaction inhibitors, dose response, miRNA deadenylation inhibitor project, biochemical, fluorescence polarization, Cy5-PAM2 peptide, secondary (AID 602260). The conditions noted are these: read-out: IC50_Mean. In kind it is functional. (Polarisation of emitted light reports the rotation of a fluorescent probe.)

The target of experiment [22] is T2, Polyadenylate-binding protein 1. Briefly: PABP1 MLLE–PAM2 binding inhibitor potency, dose response, biochemical, fluorescence polarization, FITC-PAM2 peptide (AID 602259). The class given is functional. The conditions noted are these: read-out: IC50_Mean.
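Throughout, for AC50: cells exposed to compound for roughly 70 hours or longer before luminescence read.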

T2 sequence (P11940 whole entry): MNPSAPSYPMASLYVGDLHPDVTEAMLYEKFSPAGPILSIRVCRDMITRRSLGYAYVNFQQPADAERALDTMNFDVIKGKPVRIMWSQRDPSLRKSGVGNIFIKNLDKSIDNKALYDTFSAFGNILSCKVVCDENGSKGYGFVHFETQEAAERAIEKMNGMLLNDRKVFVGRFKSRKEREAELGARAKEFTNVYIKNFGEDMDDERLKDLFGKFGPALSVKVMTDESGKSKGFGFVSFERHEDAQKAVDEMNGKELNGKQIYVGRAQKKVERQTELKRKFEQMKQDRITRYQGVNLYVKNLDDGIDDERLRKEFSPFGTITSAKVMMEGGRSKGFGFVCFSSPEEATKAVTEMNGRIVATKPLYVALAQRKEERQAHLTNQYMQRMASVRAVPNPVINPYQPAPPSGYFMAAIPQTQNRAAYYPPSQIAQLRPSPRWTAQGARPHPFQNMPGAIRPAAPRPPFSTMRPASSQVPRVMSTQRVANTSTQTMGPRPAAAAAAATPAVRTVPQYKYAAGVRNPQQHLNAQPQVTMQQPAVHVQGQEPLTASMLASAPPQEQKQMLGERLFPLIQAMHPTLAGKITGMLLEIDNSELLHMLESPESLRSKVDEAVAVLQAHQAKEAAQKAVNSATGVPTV
Voltage-dependent T-type calcium channel subunit alpha-1H, sequence (O95180 whole entry): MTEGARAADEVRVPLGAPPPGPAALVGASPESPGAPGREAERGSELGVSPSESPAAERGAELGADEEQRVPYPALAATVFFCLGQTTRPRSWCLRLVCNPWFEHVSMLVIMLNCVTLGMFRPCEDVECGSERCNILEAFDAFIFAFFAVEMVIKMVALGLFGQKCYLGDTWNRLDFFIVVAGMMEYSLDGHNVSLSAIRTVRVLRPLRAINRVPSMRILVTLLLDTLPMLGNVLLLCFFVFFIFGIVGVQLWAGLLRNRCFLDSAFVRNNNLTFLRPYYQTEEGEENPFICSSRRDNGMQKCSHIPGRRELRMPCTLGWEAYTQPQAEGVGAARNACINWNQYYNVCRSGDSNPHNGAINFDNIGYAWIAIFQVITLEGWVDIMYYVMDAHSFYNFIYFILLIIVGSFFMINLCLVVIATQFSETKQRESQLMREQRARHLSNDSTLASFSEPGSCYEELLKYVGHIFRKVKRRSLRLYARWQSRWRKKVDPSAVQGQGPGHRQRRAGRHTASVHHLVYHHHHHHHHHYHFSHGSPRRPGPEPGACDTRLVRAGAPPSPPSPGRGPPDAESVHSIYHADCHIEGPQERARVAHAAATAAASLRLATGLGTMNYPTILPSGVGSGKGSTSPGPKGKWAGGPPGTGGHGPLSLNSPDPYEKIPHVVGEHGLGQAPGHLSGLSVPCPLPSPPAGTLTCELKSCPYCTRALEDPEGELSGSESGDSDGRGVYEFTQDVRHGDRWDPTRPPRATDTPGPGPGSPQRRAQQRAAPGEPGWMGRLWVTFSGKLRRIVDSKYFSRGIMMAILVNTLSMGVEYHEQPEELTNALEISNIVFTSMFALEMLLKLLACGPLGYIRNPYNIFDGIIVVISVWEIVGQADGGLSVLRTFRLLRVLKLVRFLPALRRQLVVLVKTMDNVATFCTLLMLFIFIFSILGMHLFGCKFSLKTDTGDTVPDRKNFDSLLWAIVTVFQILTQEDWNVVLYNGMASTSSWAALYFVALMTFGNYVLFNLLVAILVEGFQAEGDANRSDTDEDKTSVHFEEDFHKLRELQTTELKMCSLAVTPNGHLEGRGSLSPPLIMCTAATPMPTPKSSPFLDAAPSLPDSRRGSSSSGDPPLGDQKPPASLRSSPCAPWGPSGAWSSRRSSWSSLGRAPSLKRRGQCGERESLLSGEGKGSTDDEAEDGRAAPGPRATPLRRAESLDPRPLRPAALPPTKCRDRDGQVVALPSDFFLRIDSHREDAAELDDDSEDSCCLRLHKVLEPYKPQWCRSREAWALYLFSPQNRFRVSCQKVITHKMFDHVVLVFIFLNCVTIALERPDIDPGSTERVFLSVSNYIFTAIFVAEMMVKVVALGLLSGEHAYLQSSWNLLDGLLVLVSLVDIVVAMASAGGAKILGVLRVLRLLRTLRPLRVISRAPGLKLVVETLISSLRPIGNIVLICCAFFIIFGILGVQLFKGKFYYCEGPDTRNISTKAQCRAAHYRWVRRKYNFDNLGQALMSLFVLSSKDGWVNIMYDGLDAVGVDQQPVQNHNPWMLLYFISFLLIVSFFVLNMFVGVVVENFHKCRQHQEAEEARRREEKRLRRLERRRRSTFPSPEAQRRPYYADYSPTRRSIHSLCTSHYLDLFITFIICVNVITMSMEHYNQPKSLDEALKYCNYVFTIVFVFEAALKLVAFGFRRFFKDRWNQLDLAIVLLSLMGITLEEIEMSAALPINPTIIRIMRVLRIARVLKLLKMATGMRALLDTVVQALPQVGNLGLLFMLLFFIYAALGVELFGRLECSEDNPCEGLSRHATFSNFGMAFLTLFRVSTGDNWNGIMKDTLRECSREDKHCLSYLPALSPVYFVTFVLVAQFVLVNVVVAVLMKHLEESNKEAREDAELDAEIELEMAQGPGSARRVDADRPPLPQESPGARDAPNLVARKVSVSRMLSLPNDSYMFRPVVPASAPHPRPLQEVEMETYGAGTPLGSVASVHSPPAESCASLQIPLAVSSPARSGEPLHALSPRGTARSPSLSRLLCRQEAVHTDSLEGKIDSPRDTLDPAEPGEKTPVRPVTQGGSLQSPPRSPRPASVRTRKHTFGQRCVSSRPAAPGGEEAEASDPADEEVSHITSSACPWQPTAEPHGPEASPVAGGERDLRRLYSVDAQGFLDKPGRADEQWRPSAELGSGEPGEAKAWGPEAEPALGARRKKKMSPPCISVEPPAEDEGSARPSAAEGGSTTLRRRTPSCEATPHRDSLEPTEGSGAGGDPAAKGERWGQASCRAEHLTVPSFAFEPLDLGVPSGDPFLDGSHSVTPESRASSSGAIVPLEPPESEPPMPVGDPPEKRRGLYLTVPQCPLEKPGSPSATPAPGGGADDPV
Neuropeptide Y receptor type 1, sequence (P25929 whole entry): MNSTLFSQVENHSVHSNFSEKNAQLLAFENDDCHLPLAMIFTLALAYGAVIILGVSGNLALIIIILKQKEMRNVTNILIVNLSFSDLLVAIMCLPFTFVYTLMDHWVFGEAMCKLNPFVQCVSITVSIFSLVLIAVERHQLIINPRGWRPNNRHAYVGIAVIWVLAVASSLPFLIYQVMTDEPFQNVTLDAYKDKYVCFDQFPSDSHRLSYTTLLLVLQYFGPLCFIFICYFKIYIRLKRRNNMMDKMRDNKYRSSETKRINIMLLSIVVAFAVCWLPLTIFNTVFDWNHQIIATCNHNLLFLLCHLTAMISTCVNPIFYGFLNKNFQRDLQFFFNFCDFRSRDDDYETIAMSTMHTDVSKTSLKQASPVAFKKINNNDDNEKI
Neuropeptide Y receptor type 2, sequence (P49146 whole entry): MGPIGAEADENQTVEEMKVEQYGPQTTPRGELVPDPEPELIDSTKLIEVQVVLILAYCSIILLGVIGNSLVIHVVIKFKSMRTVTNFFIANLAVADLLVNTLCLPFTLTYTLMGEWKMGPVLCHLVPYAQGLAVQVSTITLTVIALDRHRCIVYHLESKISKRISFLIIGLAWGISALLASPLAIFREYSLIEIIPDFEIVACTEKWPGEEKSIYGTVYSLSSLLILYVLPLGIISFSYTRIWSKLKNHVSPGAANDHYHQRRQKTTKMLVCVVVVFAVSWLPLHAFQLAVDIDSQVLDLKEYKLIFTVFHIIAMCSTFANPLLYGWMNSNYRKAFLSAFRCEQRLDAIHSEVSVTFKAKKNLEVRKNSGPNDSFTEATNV
Lysosomal acid glucosylceramidase, sequence (P04062 whole entry): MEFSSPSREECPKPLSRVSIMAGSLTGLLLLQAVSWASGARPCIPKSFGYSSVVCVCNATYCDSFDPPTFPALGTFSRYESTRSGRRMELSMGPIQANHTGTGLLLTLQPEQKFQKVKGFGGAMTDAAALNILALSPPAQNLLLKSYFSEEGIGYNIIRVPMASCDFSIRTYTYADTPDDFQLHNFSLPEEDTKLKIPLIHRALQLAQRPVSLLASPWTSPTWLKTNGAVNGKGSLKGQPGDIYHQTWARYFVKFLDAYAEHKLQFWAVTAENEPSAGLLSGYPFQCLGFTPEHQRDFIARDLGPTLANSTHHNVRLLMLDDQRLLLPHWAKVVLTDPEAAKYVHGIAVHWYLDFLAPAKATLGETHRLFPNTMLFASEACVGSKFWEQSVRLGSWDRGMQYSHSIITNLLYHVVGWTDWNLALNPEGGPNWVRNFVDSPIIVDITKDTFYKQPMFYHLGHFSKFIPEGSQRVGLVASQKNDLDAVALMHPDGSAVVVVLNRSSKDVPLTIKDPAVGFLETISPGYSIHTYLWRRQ
Aspartyl aminopeptidase, sequence (Q8I2J3 whole entry): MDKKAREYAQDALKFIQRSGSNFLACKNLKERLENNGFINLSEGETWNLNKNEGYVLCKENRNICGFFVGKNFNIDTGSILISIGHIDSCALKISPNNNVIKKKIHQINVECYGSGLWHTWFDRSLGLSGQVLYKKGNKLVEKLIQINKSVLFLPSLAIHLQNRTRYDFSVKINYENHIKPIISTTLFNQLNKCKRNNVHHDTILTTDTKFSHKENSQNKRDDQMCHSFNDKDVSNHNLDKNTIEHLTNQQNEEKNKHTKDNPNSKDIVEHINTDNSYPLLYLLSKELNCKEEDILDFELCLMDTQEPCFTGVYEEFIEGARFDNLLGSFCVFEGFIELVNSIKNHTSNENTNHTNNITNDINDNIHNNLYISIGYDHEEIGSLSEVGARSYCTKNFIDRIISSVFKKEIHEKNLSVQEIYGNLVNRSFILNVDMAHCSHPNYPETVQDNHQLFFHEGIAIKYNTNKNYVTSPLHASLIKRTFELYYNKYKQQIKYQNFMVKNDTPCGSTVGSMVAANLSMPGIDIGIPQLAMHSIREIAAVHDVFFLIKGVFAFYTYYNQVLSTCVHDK

As usually defined, the EC50 is the concentration giving half of the maximal effect. Regarding `CCOc1ccc(S(=O)(=O)NCC2CCCO2)c2cccnc12` (centres undefined), in [1], the EC50 was > 10 µM (not active).
As a reminder, the CC50 is the concentration that lowers cell viability or growth by half. Consider `Nc1ccc(Cc2nc3cc4ccccc4cc3[nH]2)cc1`, for which, in experiment [2], the half-maximal cytotoxic concentration (CC50) is > 50 µM (active). Also, in experiment [3], the IC50 was 15.1 µM (active).
For the compound `CCCOc1cc(N(CC)CC)ccc1/C=C(/C#N)c1nc2cc(C)ccc2[nH]1`, the EC50 in experiment [4] is > 79.4 µM (not active); in [6], > 79.4 µM (not active); in [7], 41.5 µM (active); in [8], > 79.4 µM (not active); in [9], 31.9 µM (active); in experiment [10] it was 937 nM (active). Moreover, the EC50 in experiment [11] was > 60 µM (not active); in experiment [12], > 150 µM (not active); in [13], 1.19 µM (active). In addition, the IC50 in experiment [5] is 573 nM (active).
For orientation: AC50 means the midpoint of the concentration-response curve, whichever way the signal moves. Take `COCCNC(=O)NC1(C(F)(F)F)Oc2ccc(Cl)cc2O1` (centres undefined): the IC50 in [14] was 2.12 µM (active); in experiment [15], > 59.6 µM (not active); in experiment [17], 6.75 µM (active). Besides, in experiment [16], the AC50 was 6.47 µM (active).
As to `COc1ccc(N=C(S)NC(NC(=O)c2cccc(Cl)c2)C(Cl)(Cl)Cl)c([N+](=O)[O-])c1` (centres undefined), the EC50 in experiment [18] was > 35.4 µM (not active); in experiment [19] it was > 35.4 µM (not active); in experiment [10] it was 1600 nM (active); in [20], 16.7 µM (not active); in [11], > 30 µM (not active). In addition, the IC50 in [21] and in experiment [22] was > 66 µM (inactive) in each case.
